From a melting point compilation (Tetko et al.; mined from patent text by program, amines drawn as free bases though some values may be those of a salt)

| melting point | Compound |
| --- | --- |
| 114 to 115 °C | CCCNc1ncnc2c1ncn2C1CC(F)C(CO)O1 (stereo not drawn) |
| 55 to 58 °C | CCCCOC(=O)CNC(=O)c1ncccc1OCc1ccccc1 |
| 150 to 156 °C | O=C(O)C1=Cc2cc(C(F)(F)F)ccc2NC1C(F)(F)F (stereo not drawn) |
| 182 °C | COC(=O)c1cc(=O)n(C)c2ccc(C(=O)c3ccc(Cl)cc3)cc12 |
| 171 to 178 °C | CCCCCCCCCCCCCCNC(=O)c1cc(N)cc(C(=O)NCCCCCCCCCCCCCC)c1 |
| 267 °C | CN(C)c1ccc(-c2[nH]nc3c2C(=O)c2c(NC(=O)CN4CCC(O)CC4)cccc2-3)cc1 |
| 52 to 53 °C | CN(C)C(=O)NCCCCC1CCSS1 (stereo not drawn) |
| 240 to 243 °C | CCn1cc(C(=O)OCC(=O)O)c(=O)c2cc3c(cc21)OCO3 |
| 145 to 146 °C | CCN(C(=O)NS(=O)(=O)c1ccccc1)c1ccc(Cl)cc1 |
| 66 to 67 °C | Nc1c(OCCCNCc2ccccc2)cccc1[N+](=O)[O-] |
| 95 to 95.5 °C | CC(C)[C@@H]1C[C@@H]([C@H](Br)CC2CCCCC2)OC1=O |
| 223 to 225 °C | OCC(O)Cn1cnc2c(Cl)nc3ccccc3c21 (stereo not drawn) |
| 272 to 275 °C | N#Cc1ccc(-c2ccc(N3CCOCC3)cc2)[nH]c1=O |
| 145 °C | CCOC(=O)C(C(=O)CC(C)C)C1c2ccccc2C(=O)N1c1ccc2ccc(Cl)nc2n1 (stereo not drawn) |
| 209 to 211 °C | COc1cc(-c2ccccc2Cl)c(Cl)cc1C(=O)N1Cc2ccc(C(=O)O)n2Cc2ccccc21 |
| 150 to 151 °C | Cc1c(O)ccc2c1OCC(c1ccc(N)cc1)C2 (stereo not drawn) |
| 98 to 100 °C | COC(=O)Cc1ccc(O)c(NC(=O)c2c(C)c(OC)c(C)c(C)c2OC)c1 |
| 178 to 181 °C | O=C(O)CC1(c2cccc(Cl)c2)CNC(=O)C1 (stereo not drawn) |
| 154 to 158 °C | Cc1c(OCCCCSCCn2c([N+](=O)[O-])cnc2C)ccnc1CNc1cnc2ccccc2c1 |
| 146 to 147 °C | Cc1cc(N2NCCNC2=O)cc(Cl)c1C(O)c1ccc(Cl)cc1 (stereo not drawn) |
| 158 °C | CC1(C)Oc2ccc([N+](=O)[O-])cc2C(n2ccccc2=O)C1(O)CNC(=O)C(F)(F)F (stereo not drawn) |
| 87 to 90 °C | COc1ccccc1N1CCN(Cc2ccc(CC(=O)O)cc2)CC1 |
| 98 to 100 °C | CC(C)(C)OC(=O)C(=NO)C(=O)CCOCc1ccccc1 |

| melting point | Compound |
| --- | --- |
| 110 to 111 °C | CC(C)c1ccc2c(-c3cc(C(C)(C)C)c(O)c(C(C)(C)C)c3)nn(CCO)c2n1 |
| 76 to 79 °C | COC(=O)c1cccc2nc(SCCCN3CCN(CC(=O)Nc4c(SC)cc(C)nc4SC)CC3)oc12 |
| 192 to 195 °C | O=C(NC1CCCC1)c1ccc(CCN2CC=C(c3c[nH]c(-c4ccc(F)cc4)c3-c3ccncc3)CC2)cc1 |
| 100 to 102 °C | O=[N+]([O-])c1ccccc1SN1CCN(C2CC2)CC1 |
| 258 to 261 °C | Cn1cc(S(C)(=O)=O)c(=O)c2sccc21 |
| 183 to 184 °C | C[Si](C)(C)C#Cc1ccc(-n2c(-c3ccccc3)ccc2-c2ccccc2)cc1 |
| 134 to 135 °C | CCc1noc(-c2cn(-c3cccc(Cl)c3)cn2)n1 |
| 177 °C | CC(C)(C)c1ccc(/C=C/C(=O)Nc2ccc3ocnc3c2)cc1 |
| 265 °C | COc1cc(C(=O)Cn2c(-c3nonc3N)nc3ccccc32)ccc1O |
| 91 to 97 °C | CCCCCCCCCCCCCCCCS(=O)(=O)OC1CNC1 |
| 81 to 85 °C | CCOC1=NC(OC)=NS(=O)(=O)N1C(C)C |
| 290 to 292 °C | N=C(NO)c1ccc(-c2cnc(-c3ccc(C(=N)NO)cc3)nc2)cc1 |
| 75 to 90 °C | CCOC(=O)C1=C(CCC(OC(=O)c2ccc([N+](=O)[O-])cc2)c2ccccc2)NC(C)=C(C(=O)OC)C1c1cccc([N+](=O)[O-])c1 (stereo not drawn) |
| 182 °C | CCCNC(=S)NS(=O)(=O)c1cc2c(cc1OC)OCC(NC(=O)c1cc(Cl)ccc1OC)C2 (stereo not drawn) |
| 276 to 277 °C | COc1cccc2c(NCc3ccccc3C)cc(C(=O)O)nc12 |
| 99.5 to 102 °C | CN(C)C(=O)C(C)(C)n1ccc(-c2ccccc2)n1 |
| 138 to 142 °C | C=CC(O)C1=C(C)C(=NO)CCC1(C)C (stereo not drawn) |
| 191 to 192 °C | Cc1cc(Cl)nnc1NN |
| 136 °C | COc1cccc2cc(C(=O)c3ccc(Cl)c([N+](=O)[O-])c3)oc12 |
| 160 to 162 °C | COC(=O)Nc1ccc(NC(=O)CBr)c([N+](=O)[O-])c1 |
| 84 to 86 °C | CC(C)Oc1ccc(/C=C(\NC(=O)c2ccc(OCCC(F)(F)F)cc2)C(=O)NCCO)cc1 |
| 164 to 166 °C | CCC(NC(=S)Nc1nc(C)cs1)C(C)C (stereo not drawn) |
| 182 to 187 °C | CCN(CC)CC(=O)OC1CC2(C)C(C(C)=O)CCC2C2CCC3CC(O)C(Cl)CC3(C)C12 (stereo not drawn) |

| melting point | Compound |
| --- | --- |
| 190 to 192 °C | Nc1c(CC(=O)O)cccc1Nc1ccc(Cl)cc1 |
| 192 to 194 °C | CC(C)(C)CC(=O)Nc1ccc([N+](=O)[O-])cc1 |
| 199 to 203 °C | O=C1C(=O)c2ccc(-c3cccc(C(F)(F)F)c3)cc2C2=C1SCC1(CCNCC1)O2 |
| 118 to 122 °C | Clc1cc(N2CCSCC2)nc(Cl)n1 |
| 173 to 175 °C | CC(CCCC(C)(C)O)C1CCC2C3=CC=C4CC(O)C5OC5C4(C)C3CCC21C (stereo not drawn) |
| 77 to 78 °C | CCOC(=O)c1cc(N)cc(N)c1 |
| 155 to 157 °C | CC(C)(C(=O)O)c1nnc2ccc(NCCCN3CCC(OC(c4ccccc4)c4ccccc4)CC3)nn12 |
| 180 to 181 °C | CS(=O)(=O)c1ccc(C(CC2CCCC2)C(=O)O)cc1C#N (stereo not drawn) |
| 273 to 274 °C | CCc1nc(-c2cccc(C(=O)O)c2)c(-c2ccnc(N)c2)s1 |
| 147 to 149 °C | COc1cccc([C@H]2O[C@H](CC(=O)Nc3ccc(OCCCc4ccccc4)c(CCC(=O)O)c3)C(=O)N(CC(C)(C)CO)c3ccc(Cl)cc32)c1OC |
| 64 to 68 °C | CC(CCC(=O)O)(c1ccc(OCc2ccc3ccccc3c2)cc1)c1ccc(OCc2ccc3ccccc3n2)cc1 (stereo not drawn) |
| 217 to 218 °C | CCN(CC)c1cncc(C(=O)Nc2nnn[nH]2)n1 |
| 97 °C | CC(C)(O)[C@H](NC(=O)C(Cl)(Cl)Cl)c1ccccc1 |
| 192 to 196 °C | COC(=O)c1c(N)n(C)c2ccccc12 |
| 175 °C | NOC(=O)C(=C(C(=O)C(F)(F)F)c1ccccc1)c1ccccc1 |
| 83 to 85 °C | CCCCCCCCCC1CNC(=O)O1 (stereo not drawn) |
| 138 to 140 °C | Cc1cn(C)c2c(OCc3ccccc3)cc3c(c12)[C@H](CO)CN3C(=O)OC(C)(C)C |
| 114 °C | COc1cc(-c2cccc(C)c2)cc2oc(=O)c(C)c(C)c12 |
| 92 to 93 °C | CCOC(=O)Cc1ccc(-c2cn3ccccc3n2)cc1 |
| 226 to 228 °C | C#Cc1ccnc(-c2cc(N)c(Br)cc2[N+](=O)[O-])c1 |
| 100 to 101 °C | COC(=O)c1ccc(OC2=C3N=C4CCCCC4=C3C(Cc3ccc(OC)c(OC)c3)C=C2)o1 (stereo not drawn) |
| 217 to 219 °C | Cc1[nH]c(=S)n(Nc2ccccc2)c1C |
| 225 to 227 °C | O=C(O)CNC(=O)c1nc2ccc(Oc3ccccc3)cc2cc1O |

| Compound | melting point |
| --- | --- |
| CC1Oc2c(F)cc(CN3CC=C(c4ccc(Cl)cc4)CC3)cc2NC1=O (stereo not drawn) | 214 to 233 °C |
| CCC(O)(C#Cc1ncn2c1CN(C)C(=O)c1c(Cl)cccc1-2)CC | 186 to 188 °C |
| COC(=O)c1ccc(CCl)nc1 | 63.5 to 63.8 °C |
| NCCN1CCC(c2n[nH]c3cc(F)ccc23)CC1 | 125 to 128 °C |
